Molecular target: T1, CDK2 (Homo sapiens, UniProt P24941)
T1 construct: High-Throughput Measurement of Cellular Endogenous CDK2; endogenous in cells; host or cells: OVCAR3
Assay: Inhibition of CDK2: phospho-Rb (S807/811) HTRF measurement in OVCAR3 cells, 24 h
Type: cell-based
Settings: 24 h compound treatment, read-out: pRB_OVCAR3_24h
Description: Inhibition of CDK2: Phospho-R^b Measurement in Cells
Phosphorylation of RB protein at S807/811 were measured using HTRF phospho-RB cellular kits (Cat #64RBS807PEG) from Cisbio.
On Day 1, OVCAR3 (CDK2 dependent cell line) cells were seeded into 96-well tissue-culture treated plates at 20,000 cells/well in 200 μL and incubated overnight at 37° C. in CO2 atmosphere. On Day 2, the cells were treated with test compounds at concentrations from 0.3 to 10,000 nM using HP D300 digital dispenser. Twenty-four hours after compound treatment, cell culture media is removed by flicking the plate and tapping the plate against clean paper towel. 30 μL 1× lysis buffer was supplemented from the kit was added to each well and the plate was incubated at room temperature on shaker for 30 min. After homogenization by pipetting up and down, 8 μL cell lysate from 96-well cell culture plate was transferred to 384-well small volume white detection plate. 2 μL premixed detection solution was added and the plate was covered with sealer. To prepare the detection solution, d2 conjugated-phospho-RB antibody and Eu-cryptate conjugated phosphor-RB antibody were diluted into detection buffer following manufacturer's instruction. Detection plates were incubated for 4 h at room temperature and read on ClarioStar (BMG Labtech) in TR-FRET mode (665 nM and 620 nM). The TR-FRET ratio (665 nM/620 nM) was plotted against the compound concentration and normalized to DMSO controls. Half maximal inhibition concentration (IC50) values were calculated with a four-parameter logistic fit using GraphPad Prism (version 8; La Jolla, CA).

| Compound | IC50 |
| --- | --- |
| O=C1CCC(Nc2ccc(N3CCN(Cc4cccc(S(=O)(=O)N5CCC(Nc6ncc(C(F)(F)F)cn6)CC5)c4)CC3)cc2)C(=O)N1 (centres unmarked) [Example 78, 3-((4-(4-(3-((4-((5-(trifluoromethyl)-pyrimidin-2-yl)amino)piperidin-1-yl)sulfonyl)benzyl)piperazin-1-yl)phenyl)amino) piperidine-2,6-dione] | 100 to 500 nM |
| O=C1CCC(N2C(=O)c3cc(F)c(N4CCN(CC5CCN(c6cccc(S(=O)(=O)N7CCC(Nc8ncc(Cl)cn8)CC7)c6)CC5)CC4)cc3C2=O)C(=O)N1 (centres unmarked) [Example 79, 5-(4-((1-(3-((4-((5-chloropyrimidin-2-yl)amino)piperidin-1-yl)sulfonyl)phenyl)-piperidin-4-yl)methyl)piperazin-1-yl)-2-(2,6-dioxopiperidin-3-yl)-6-fluoroisoindoline-1,3-dione] | 500 to 2500 nM |
| O=C1CCC(N2C(=O)c3cc(F)c(N4CCN(CC5CCN(c6cccc(S(=O)(=O)N7CCC(Nc8ncc(C(F)(F)F)cn8)CC7)c6)CC5)CC4)cc3C2=O)C(=O)N1 (centres unmarked) [Example 80, 2-(2,6-dioxopiperidin-3-yl)-5-fluoro-6-(4-((1-(3-((4-((5-(trifluoromethyl)pyrimidin-2-yl)amino)piperidin-1-yl)sulfonyl)phenyl)-piperidin-4-yl)methyl)piperazin-1-yl)isoindoline-1,3-dione] | 100 to 500 nM |
| Cn1nc(N2CCC(=O)NC2=O)c2ccc(C3CN(Cc4cccc(S(=O)(=O)N5CCC(Nc6ncc(OC(F)F)cn6)CC5)c4)C3)cc21 [Example 81, 1-(6-(1-(3-((4-((5-(difluoromethoxy)-pyrimidin-2-yl)amino)piperidin-1-yl)sulfonyl)benzyl)azetidin-3-yl)-1-methyl-1H-indazol-3-yl)dihydropyrimidine-2,4(1H,3H)-dione] | 500 to 2500 nM |
| O=C1CCN(c2ccc(N3CCN(Cc4cccc(S(=O)(=O)N5CCC(Nc6ncc(C(F)(F)F)cn6)CC5)c4)CC3)cc2)C(=O)N1 [Example 82, 1-(4-(4-(3-((4-((5-(trifluoromethyl)-pyrimidin-2-yl)amino)piperidin-1-yl)sulfonyl)benzyl)piperazin-1-yl)phenyl) dihydropyrimidine-2,4(1H,3H)-dione] | 500 to 2500 nM |
| Cn1nc(N2CCC(=O)NC2=O)c2ccc(N3CCC(NCc4cccc(S(=O)(=O)N5CCC(Nc6ncc(Cl)cn6)CC5)c4)CC3)cc21 [Example 84, 1-(6-(4-((3-((4-((5-chloropyrimidin-2-yl)amino)piperidin-1-yl)sulfonyl)benzyl)-amino)piperidin-1-yl)-1-methyl-1H-indazol-3-yl)dihydropyrimidine-2,4(1H,3H)-dione] | > 2500 nM |
| Cn1nc(N2CCC(=O)NC2=O)c2ccc(N3CCC(NCc4cccc(S(=O)(=O)N5CCC(Nc6ncc(C(F)(F)F)cn6)CC5)c4)CC3)cc21 [Example 85, 1-(1-methyl-6-(4-((3-((4-((5-(trifluoro-methyl)pyrimidin-2-yl)amino)piperidin-1-yl)sulfonyl)benzyl)amino)piperidin-1-yl)-1H-indazol-3-yl)dihydropyrimidine-2,4(1H,3H)-dione] | 500 to 2500 nM |
| CN(Cc1cccc(S(=O)(=O)N2CCC(Nc3ncc(C(F)(F)F)cn3)CC2)c1)CC1CCN(c2ccc3c(N4CCC(=O)NC4=O)nn(C)c3c2)CC1 [Example 88, 1-(1-methyl-6-(4-((methyl(3-((4-((5-(trifluoromethyl)pyrimidin-2-yl)amino)-piperidin-1-yl)sulfonyl)benzyl)amino)-methyl)piperidin-1-yl)-1H-indazol-3-yl)dihydropyrimidine-2,4(1H,3H)-dione] | 500 to 2500 nM |
| Cn1nc(N2CCC(=O)NC2=O)c2ccc(C3CCN(CC4CCN(c5cccc(S(=O)(=O)N6CCC(Nc7ncc(C(F)(F)F)cn7)CC6)c5)CC4)CC3(F)F)cc21 (centres unmarked) [Example 90, 1-(6-(3,3-difluoro-1-((1-(3-((4-((5-(trifluoromethyl)pyrimidin-2-yl)amino)-piperidin-1-yl)sulfonyl)phenyl)piperidin-4-yl)methyl)piperidin-4-yl)-1-methyl-1H-indazol-3-yl)dihydropyrimidine-2,4(1H,3H)-dione] | 100 to 500 nM |
| CC(Cc1cccc(S(=O)(=O)N2CCC(Nc3ncc(C(F)(F)F)cn3)CC2)c1)CN1CCN(c2cc3c(cc2F)C(=O)N(C2CCC(=O)NC2=O)C3)CC1 (centres unmarked) [Example 96, 3-(6-fluoro-5-(4-(2-methyl-3-(3-((4-((5-(trifluoromethyl)pyrimidin-2-yl)amino)-piperidin-1-yl)sulfonyl)phenyl)propyl)-piperazin-1-yl)-1-oxoisoindolin-2-yl)piperidine-2,6-dione] | 100 to 500 nM |
| CC(Cc1cccc(S(=O)(=O)N2CCC(Nc3ncc(Cl)cn3)CC2)c1)CN1CCN(c2cc3c(cc2F)C(=O)N(C2CCC(=O)NC2=O)C3)CC1 (centres unmarked) [Example 97, 3-(5-(4-(3-(3-((4-((5-chloropyrimidin-2-yl)amino)piperidin-1-yl)sulfonyl)phenyl)-2-methylpropyl)piperazin-1-yl)-6-fluoro-1-oxoisoindolin-2-yl)piperidine-2,6-dione] | 500 to 2500 nM |
| O=C1CCC(N2Cc3cc(N4CCN(CC5CCN(c6cccc(S(=O)(=O)N7CCC(Nc8ncc(Cl)cn8)CC7)c6)CC5)CC4)ccc3C2=O)C(=O)N1 (centres unmarked) [Example 98, 3-(5-(4-((1-(3-((4-((5-chloropyrimidin-2-yl)amino)piperidin-1-yl)sulfonyl)phenyl)-piperidin-4-yl)methyl)piperazin-1-yl)-1-oxoisoindolin-2-yl)piperidine-2,6-dione] | 100 to 500 nM |
| O=C1CCC(N2Cc3cc(N4CCN(CC5CCN(c6cccc(S(=O)(=O)N7CCC(Nc8ncc(C(F)(F)F)cn8)CC7)c6)CC5)CC4)c(F)cc3C2=O)C(=O)N1 (centres unmarked) [Example 101, 3-(6-fluoro-1-oxo-5-(4-((1-(3-((4-((5-(trifluoromethyl)pyrimidin-2-yl)amino)-piperidin-1-yl)sulfonyl)phenyl)piperidin-4-yl)methyl)piperazin-1-yl)isoindolin-2-yl)piperidine-2,6-dione] | 100 to 500 nM |
| CC(Cc1cccc(S(=O)(=O)N2CCC(Nc3ncc(OC(F)F)cn3)CC2)c1)CN1CCN(c2cc3c(cc2F)C(=O)N(C2CCC(=O)NC2=O)C3)CC1 (centres unmarked) [Example 102, 3-(5-(4-(3-(3-((4-((5-(difluoromethoxy)-pyrimidin-2-yl)amino)piperidin-1-yl)sulfonyl)phenyl)-2-methylpropyl)-piperazin-1-yl)-6-fluoro-1-oxoisoindolin-2-yl)piperidine-2,6-dione] | 500 to 2500 nM |
| O=C1CCC(N2Cc3cc(N4CCN(CC5CCN(c6cccc(S(=O)(=O)N7CCC(Nc8ncc(Cl)cn8)CC7)c6)CC5)CC4)c(F)cc3C2=O)C(=O)N1 (centres unmarked) [Example 103, 3-(5-(4-((1-(3-((4-((5-chloropyrimidin-2-yl)amino)piperidin-1-yl)sulfonyl)phenyl)-piperidin-4-yl)methyl)piperazin-1-yl)-6-fluoro-1-oxoisoindolin-2-yl)piperidine-2,6-dione] | 500 to 2500 nM |
| Cn1nc(N2CCC(=O)NC2=O)c2ccc(N3C4CCC3CN(CC3CCN(c5cccc(S(=O)(=O)N6CCC(Nc7ncc(Cl)cn7)CC6)c5)CC3)C4)cc21 [Example 104, 1-(6-(3-((1-(3-((4-((5-chloropyrimidin-2-yl)amino)piperidin-1-yl)sulfonyl)phenyl)-piperidin-4-yl)methyl)-3,8-diaza-bicyclo[3.2.1]octan-8-yl)-1-methyl-1H-indazol-3-yl)dihydropyrimidine-2,4(1H,3H)-dione] | > 2500 nM |
| O=C1CCC(N2Cc3cc(N4CCN(CC5CCN(c6cccc(S(=O)(=O)N7CCC(Nc8ncc(OC(F)F)cn8)CC7)c6)CC5)CC4)c(F)cc3C2=O)C(=O)N1 (centres unmarked) [Example 106, 3-(5-(4-((1-(3-((4-((5-(difluoromethoxy)-pyrimidin-2-yl)amino)piperidin-1-yl)sulfonyl)phenyl)piperidin-4-yl)methyl)-piperazin-1-yl)-6-fluoro-1-oxoisoindolin-2-yl)piperidine-2,6-dione] | 100 to 500 nM |
| O=C1CCN(c2ccc(N3CCN(CC4CCN(c5cccc(S(=O)(=O)N6CCC(Nc7ncc(Cl)cn7)CC6)c5)CC4)CC3)cc2)C(=O)N1 [Example 109, 1-(4-(4-((1-(3-((4-((5-chloropyrimidin-2-yl)amino)piperidin-1-yl)sulfonyl)phenyl)-piperidin-4-yl)methyl)piperazin-1-yl)phenyl) dihydropyrimidine-2,4(1H,3H)-dione] | 100 to 500 nM |
| Cn1nc(N2CCC(=O)NC2=O)c2cc(F)c(N3CCN(CC4CCN(c5cccc(S(=O)(=O)N6CCC(Nc7ncc(C(F)(F)F)cn7)CC6)c5)CC4)CC3)cc21 [Example 110, 1-(5-fluoro-1-methyl-6-(4-((1-(3-((4-((5-(trifluoromethyl)pyrimidin-2-yl)amino)-piperidin-1 - yl)sulfonyl)phenyl)piperidin-4-yl)methyl)piperazin-1-yl)-1H-indazol-3-yl)dihydropyrimidine-2,4(1H,3H)-dione] | 100 to 500 nM |
| Cn1nc(N2CCC(=O)NC2=O)c2cc(F)c(N3CCN(CC4CCN(c5cccc(S(=O)(=O)N6CCC(Nc7ncc(Cl)cn7)CC6)c5)CC4)CC3)cc21 [Example 111, 1-(6-(4-((1-(3-((4-((5-chloropyrimidin-2-yl)amino)piperidin-1-yl)sulfonyl)phenyl)-piperidin-4-yl)methyl)piperazin-1-yl)-5-fluoro-1-methyl-1H-indazol-3-yl)dihydropyrimidine-2,4(1H,3H)-dione] | 500 to 2500 nM |

Reference: patent publication US20260167623A1 (NIKANG THERAPEUTICS, INC., priority 2022, published 2026)
